Assay results taken from the NIST ThermoML archive (doi:10.1021/je0342116).
Numbers after ± are expanded uncertainties.

Experiment: activity coefficient (dimensionless); of the first substance listed, at infinite dilution; xn = mol fraction of the nth substance listed
Settings: Liquid, Chromatography, x1 = 0

Row | Compound | activity coefficient (249.97 K) | activity coefficient (270.03 K) | activity coefficient (290 K) | activity coefficient (310 K) | activity coefficient (330 K) | activity coefficient (249.96 K) | activity coefficient (270.04 K)
1 | CCCC [butane] + CC(C)O | 5.2 ± 0.2 | 5.1 ± 0.2 | 5.1 ± 0.2 | 4.9 ± 0.2 | 4.6 ± 0.2 |  | 
2 | C/C=C/C [(E)-2-butene] + CC(C)O |  |  | 4.2 ± 0.2 | 4.1 ± 0.2 | 3.9 ± 0.2 | 4.3 ± 0.2 | 4.3 ± 0.2
3 | C=CC [propene] + CC(C)O |  |  | 3.7 ± 0.2 | 3.6 ± 0.2 | 3.4 ± 0.2 | 3.8 ± 0.2 | 3.7 ± 0.2
4 | C=CCC [1-butene] + CC(C)O | 4.4 ± 0.2 | 4.4 ± 0.2 | 4.3 ± 0.2 | 4.1 ± 0.2 | 3.9 ± 0.2 |  | 
5 | CC(C)C [2-methylpropane] + CC(C)O |  |  | 5.2 ± 0.2 | 5 ± 0.2 | 4.7 ± 0.2 | 5.4 ± 0.3 | 5.3 ± 0.2
6 | CCC [propane] + CC(C)O |  |  | 4.4 ± 0.2 | 4.3 ± 0.2 | 4.2 ± 0.2 | 4.5 ± 0.2 | 4.5 ± 0.2
7 | C=C(C)C [2-methylpropene] + CC(C)O | 4.4 ± 0.2 | 4.3 ± 0.2 | 4.2 ± 0.2 | 4 ± 0.2 | 3.8 ± 0.2 |  | 
8 | C=CC=C [1,3-butadiene] + CC(C)O | 3.9 ± 0.2 | 3.8 ± 0.2 | 3.7 ± 0.2 | 3.5 ± 0.2 | 3.3 ± 0.2 |  | 
